SMILES | melting point
Nc1c(Cl)ccc2c1C=C(C(=O)O)C(C(F)(F)F)O2 (stereo unspecified) | 208 to 210 °C
COc1ccc2c(c1)C(=O)C1(O)c3ccc(C(C)C)cc3OC21O (stereo unspecified) | 98 to 102 °C
O=C(C=Cc1ccc(-c2ccc(Cl)cc2)cc1)NC(Cc1ccc(OCc2ccccc2)cc1)C(=O)O (stereo unspecified) | 253 to 254 °C
CC(O)=C(C#N)C(=O)Nc1ccc(S(C)(=O)=O)cc1 | 205 to 206 °C
CCSCc1ccc(CC(N)C(=O)O)cc1 (racemic) | 251 °C
CC(O)(c1ccccc1)c1cncs1 (stereo unspecified) | 86 to 87 °C
CCOc1cc(Oc2ccc(S(C)(=O)=O)nc2)cc2cc(C3=NCC(CC(N)=O)S3)[nH]c12 (stereo unspecified) | 195 to 196 °C
CSc1cc2c(cc1F)C(=O)C(=O)N2 | 296 °C
CCc1nnc(-c2ccc(N(C)C)c(C)c2)n1-c1ccc(OC)cc1 | 131 °C
NS(=O)(=O)c1cccc(-c2ccco2)c1 | 197 to 198 °C
CCOC(=O)C1=C(C)NC(=S)N(C(=O)OCC)C1c1ccc([N+](=O)[O-])cc1 (stereo unspecified) | 163 to 165 °C
CCOC(=O)C(=O)Nc1ccc(S(=O)(=O)NC(=O)C(=O)OCC)c(C(F)(F)F)c1 | 161 to 162 °C
Fc1cccc(Cl)c1[C@@H]1C[C@H](c2ccc(Cl)cc2)Nc2ncnn21 (relative stereo) | 227 to 228 °C
CCOCc1ncc[nH]1 | 205 to 206 °C
O=[N+]([O-])c1ccc(S(=O)(=O)CCO)cc1O | 140 to 142 °C
CC(C)(C)OC(=O)N[C@@H](CC(=O)OCc1ccccc1)C(=O)N[C@@H](Cc1ccccc1)C(=O)OCc1ccccc1 | 93 to 94 °C
OC(CCl)CNC(c1ccccc1)c1ccccc1 (stereo unspecified) | 66 to 68 °C
COc1cc2c(cc1F)C(c1ccccc1Cl)=NC1=CNNC1=N2 | 242 to 243 °C
CCCCOCC(O)COc1ccc(-c2nc(OC)nc(-c3ccc(OCC(O)COCCCC)cc3O)n2)c(O)c1 (stereo unspecified) | 98 to 99 °C
Nc1ccc2nc3c(c(N)c2c1)C(=O)CCC3 | 310 °C
COC(=O)C1CCCN1C(=O)Cc1c(C)cc(C)cc1C (stereo unspecified) | 74 °C

SMILES | melting point
Fc1cc(Cl)ccc1-c1ncnc(C(F)F)c1Cl | 76 to 77 °C
CC(C)(C)CCNC(=O)c1coc(C2C3CCC(O3)C2Cc2ccccc2CCC(=O)O)n1 (stereo unspecified) | 160 to 162 °C
CCCCc1ccc(S(=O)(=O)Nc2nncs2)cc1 | 120 to 121 °C
COc1cc(F)ccc1C(C)(C)CC#N | 80 to 83 °C
CCOC(=O)/C=C/c1sc(-n2cnc3ccccc32)nc1C(C)C | 229 to 230 °C
CN1CC(CN2C(=O)C3(COc4cc5c(cc43)OCO5)c3ccccc32)OC1=O (stereo unspecified) | 98 to 102 °C
CC(C)Cn1nc(O)nc1Cl | 84 to 86 °C
CC(C)CCN1C(=O)C2(COc3cc4c(cc32)OCCO4)c2c1ccc1ncsc21 (stereo unspecified) | 169 to 171 °C
Nc1ncc(C#Cc2ccc(Cl)cc2)c(NCCO)n1 | 197 to 200 °C
CC(=O)Nc1ccc(C=C(C#N)C(=O)OCC[Si](C)(C)C)cc1 | 136 °C
CCOC(=O)C1CCN2C(=O)C(=O)c3cc(Br)cc1c32 (stereo unspecified) | 150 to 151 °C
C=CCOc1ccc2cc(O)ccc2c1 | 92 to 93 °C
N#Cc1cn(COC(CO)CO)c2ncnc(N)c12 | 195 °C
Cn1c(=O)c(-c2ccc(Cl)cc2Cl)cc2c3cc(-c4csc(N)n4)ccc3n(C)c21 | 272 to 273 °C
CC1CC2C3CC(Cl)C4=CC(=O)C=CC4(C)C3C(O)CC2(C)C1C(=O)CO (stereo unspecified) | 128 °C
COc1ccc(Cn2c(=O)c(C(=O)NC3CCCCC3)c(O)c3cc(Cl)cnc32)cc1 | 193 °C
CNC(=O)CN1CCC2=C(C1)c1c(O)cc(C(C)C)cc1OC2(C)C | 178 to 190 °C
O=c1[nH]c(CCl)c(I)c(=O)[nH]1 | 225 °C
NC(=O)NC1CCCCCC1 | 203 to 204 °C
CC(=O)C1CCC2C3CC=C4CC(F)CCC4(C)C3CCC12C (stereo unspecified) | 166 to 167 °C

Now from value to compound:

melting point | SMILES
159 to 160 °C | Cc1cc(CC2(Cc3cc(C)nc(Cl)c3)c3ccccc3-c3ncccc32)cc(Cl)n1
175 to 176 °C | CC(C)c1cccc(C(C)C)c1NC(=O)NCC(c1ccccc1)c1ccccc1
218 to 220 °C | CCc1cc(N2CCCCC2)c(S(C)(=O)=O)cc1C(=O)N=C(N)N
133 to 134 °C | COc1ccccc1Oc1c(N=[N+]=[N-])nc(-c2ncccn2)nc1C(=O)OCCO
118 to 120 °C | O=[N+]([O-])c1ccc(OC[C@@H]2CCCN2c2ccc3ccccc3n2)cc1
199 °C | COc1ccc(C2(O)CCN(CC(O)c3ccc(OCc4ccccc4)cc3)CC2)cn1 (stereo unspecified)
77.5 to 79 °C | COc1ccc2c(c1)c1c(n2CCc2noc(-c3ccccc3)n2)CCN(C)C1
> 260 °C | O=C1c2ccccc2C(=O)c2sc(-c3ncc(-c4ccccc4)o3)nc21
219 °C | O=C(O)COc1ccc(NC(=O)c2csc(NC(=O)NCc3ccccc3)n2)cc1C(=O)O
166 to 170 °C | O=C(O)c1ccc(NC(=O)C(CS)Cc2ccccc2)cc1O (stereo unspecified)
143 to 147 °C | COC(=O)CP(=O)(O)C(CCc1ccccc1)NC(=O)OCc1ccccc1 (stereo unspecified)
238 to 240 °C | Nc1cccc2cc(C(=O)N3CCc4ccccc4C3)cnc12
256 to 257 °C | Cc1cc(Nc2c3ccccc3nc3ccccc23)ccc1N
147 °C | CN(C)c1ccc(CNC(=O)C(Cc2ccccc2)NC(=O)Nc2ccc(C(=N)N)cc2)cc1 (stereo unspecified)
134 to 135 °C | CC1c2ccccc2-c2ccc(F)cc2N1C(=O)c1ccc(O)cc1 (stereo unspecified)
136 to 137 °C | CC(=O)Nc1ccc(S(=O)(=O)CCN2CCOCC2)cc1
134 to 135 °C | Cc1cccc(NC(=O)NC2N=C(CC(C)C)c3cccc(C)c3N(CC(=O)N3CC4CCC(CC4)C3)C2=O)c1 (stereo unspecified)
182 to 183 °C | CNCc1coc(-c2cccc(C3=Nc4ccc(-n5cccc5)cc4NC(=O)C3)c2)n1
105 to 107 °C | CC(O)Cc1c2ccccc2cc2ccccc12 (stereo unspecified)
178 to 179 °C | Cc1ccc(-c2ccc3c(c2)C=C(C(=O)Nc2ccc(CCl)cc2)CC3)cc1
222 to 224 °C | CC(=O)N1CCN=C1c1ccc(NC(=O)C2=Cc3ccccc3OCC2)cc1
114 to 115 °C | CNC(=O)[C@H]1O[C@@H](n2cnc3c(NCc4cc(Cl)ccc4OCc4ccccc4)ncnc32)[C@H](O)[C@@H]1N
237 to 240 °C | Clc1ccc(Nc2nc3ccccc3c3[nH]c(C4CCCCC4)nc23)cc1Cl
210 to 215 °C | Cn1ncc(C(=O)N2CCCC2)c1C(=O)Nc1ccn2nc(-c3ccccc3)nc2c1
154 to 155 °C | COc1ccc(C(=O)Nc2cc(N)ccc2Br)cc1OC
98 °C | Cc1cc(-n2ccnc2)c2cccc(OCc3c(Cl)ccc(S(=O)(=O)N4CCC[C@H]4C(=O)N(C)CCN(C)CCCO)c3Cl)c2n1
135 to 136 °C | COc1ccc(CN2C=CC=C3C2=Nc2cc(C)ccc2S(=O)(=O)N3C)cc1
180 to 183 °C | CCOc1cc(N)c(Cl)cc1C(=O)NCC1CN(Cc2ccccc2)CCCO1 (stereo unspecified)
119 to 121 °C | O=C(Nc1cccc(-n2nc(C(F)(F)F)cc2C(F)(F)F)c1)c1cccc(Cl)c1Cl
87 to 89 °C | CC[C@@H](c1ccccc1)N(Cc1ccc(C(=O)OC)c(F)c1F)S(=O)(=O)c1ccc(Cl)cc1
